Measured values from patent US20140171404A1, “Autotaxin inhibitors” (NOVARTIS AG, priority 2012, published 2014).

target: T1, Recombinant human ATX (Homo sapiens, UniProt Q13822); test: Assessing ATX inhibition: released choline, Amplex Red fluorescence; type: biochemical; settings: ATX 10 nM, LPC 18:1 10 μM, pre-incubated with ATX at 37° C. for 20 minutes; Table 1, exemplified compounds; read-out: IC50
T1 construct: made in house; host or cells: human embryonic kidney (HEK) cells
Procedure: LPC (oleoyl (18:1)) was purchased from Avanti Polar Lipids (Alabaster; AL) and solubilized in methanol to 20 mM. Amplex Red was obtained from Invitrogen Life Technologies (Paisley, UK) and dissolved in DMSO to 10 mM. Choline oxidase and horseradish peroxidase (HRP) were obtained from Sigma Aldrich (Dorset, UK) and dissolved in HBSS to 20 U/ml and 200 U/ml respectively. All reagents were stored at −20° C. in single use aliquots. All experimental measurements were performed in assay buffer made up immediately prior to use (HBSS, 0.01% BSA essentially fatty acid free).
Recombinant human ATX was prepared at Novartis (Basel, CH) in a human embryonic kidney (HEK) cell preparation, and stored in single use aliquots of […] (26 μM) stocks stored at −80° C.
All experimental measurements were performed in black 384 well polystyrene (low volume, round bottom, Corning (3676)) plates. PerkinElmer EnVision (Fluorescence Intensity/Absorbance Monochromator) or Tecan Infinite 200 PRO series plate reader was used to detect change in fluorescent intensity.
ATX activity was determined by measurement of released choline in reactions containing ATX (10 nM), choline oxidase (0.1 U/ml), HRP (100 U/ml), amplex red (50 μM) and LPC 18:1 (10 μM). Compounds of the invention were prepared as 10 point serial dilutions from 1 μM in duplicate and pre-incubated with ATX at 37° C. for 20 minutes prior to the addition of remaining reagents. The liberated choline was measured from changes in fluorescence intensity (λex 530 nm, λem 590 nm) of the product resurofin at 37° C. every 2 minutes over a 40-minute period. ATX activity was measured as a slope of the linear portion of the progress curve, typically between 14 to 24 minutes.
Slope data was exported to Graphpad prism (Graphpad software, San Diego, Calif.) where data was fitted to equation 1.
Y=Bottom+(Top−Bottom)/(1+10̂((Log IC50−X)*HillSlope)) Equation 1: […]

IC50	Structure (SMILES)
644 nM	CN(CCC1CCN(C(=O)OCc2cc(Cl)cc(Cl)c2)CC1)C(=O)c1cc(O)no1 [Example 1, 3,5-Dichlorobenzyl 4-(2-(3-hydroxy-N-methylisoxazole-5-carboxamido)ethyl) piperidine-1-carboxylate]
248 nM	COc1c(N(C)CCC2CCN(C(=O)OCc3cc(Cl)cc(Cl)c3)CC2)c(=O)c1=O [Example 2]
445 nM	CCOc1c(NCCC2CCN(C(=O)OCc3cc(Cl)cc(Cl)c3)CC2)c(=O)c1=O [Example 3]
728 nM	O=C(OCc1cc(Cl)cc(Cl)c1)N1CCC(CCNc2c(O)c(=O)c2=O)CC1 [Example 4]
313 nM	CC1CC(CNC(=O)CCc2cc(O)no2)CCN1C(=O)OCc1cc(Cl)cc(Cl)c1 (centres unmarked) [Example 5]
62 nM	CN(CCC1CCN(C(=O)OCc2cc(Cl)cc(Cl)c2)CC1)C(=O)Cc1c[nH]nn1 [Example 6, 3,5-Dichlorobenzyl 4-(2-(N-methyl-2-(1H-1,2,3-triazol-4-yl)acetamido)ethyl)piperidine-1-carboxylate]
28 nM	O=C(Cc1c[nH]nn1)NCCC1CCN(C(=O)OCc2cc(Cl)cc(Cl)c2)CC1 [Example 7, 3,5-Dichlorobenzyl 4-(2-(2-(1H-1,2,3-triazol-4-yl)acetamido)ethyl)piperidine-1-carboxylate]
360 nM	Cc1oc(=O)[nH]c1C(=O)N(C)CCC1CCN(C(=O)OCc2cc(Cl)cc(Cl)c2)CC1 [Example 8, 3,5-Dichlorobenzyl 4-(2-(N,5-dimethyl-2-oxo-2,3-dihydrooxazole-4-carboxamido)ethyl)piperidine-1-carboxylate]
109 nM	O=C(/C=C/c1c[nH]cn1)NC1CCN(C(=O)OCc2cc(Cl)cc(Cl)c2)CC1 [Example 9, (E)-3,5-Dichlorobenzyl 4-(3-(1H-imidazol-4-yl)acrylamido)piperidine-1-carboxylate]
543 nM	O=C(O)CCCCC(=O)NC1CCN(C(=O)OCc2cc(Cl)cc(Cl)c2)CC1 [Example 10, 6-((1-(((3,5-Dichlorobenzyl)oxy)carbonyl)piperidin-4-yl)amino)-6-oxohexanoic acid]
51 nM	CCOc1c(NCCC2CN(C(=O)OCc3cc(Cl)cc(Cl)c3)CCO2)c(=O)c1=O (centres unmarked) [Example 11, 3,5-Dichlorobenzyl 2-(2-((2-ethoxy-3,4-dioxocyclobut-1-en-1-yl)amino)ethyl)morpholine-4-carboxylate]
520 nM	O=C(NCCC1CN(C(=O)OCc2cc(Cl)cc(Cl)c2)CCO1)c1c[nH]c(=O)o1 (centres unmarked) [Example 12, 3,5-Dichlorobenzyl 2-(2-(2-oxo-2,3-dihydrooxazole-5-carboxamido)ethyl)morpholine-4-carboxylate]
828 nM	CN(CCC1CN(C(=O)OCc2cc(Cl)cc(Cl)c2)CCO1)C(=O)c1c[nH]c(=O)o1 (centres unmarked) [Example 13, 3,5-Dichlorobenzyl 2-(2-(N-methyl-2-oxo-2,3-dihydrooxazole-5-carboxamido)ethyl)morpholine-4-carboxylate]
540 nM	CCOc1c(N(C)CCC2CN(C(=O)OCc3cc(Cl)cc(Cl)c3)CCO2)c(=O)c1=O (centres unmarked) [Example 14, 3,5-Dichlorobenzyl 2-(2-((2-ethoxy-3,4-dioxocyclobut-1-en-1-yl)(methyl)amino)ethyl)morpholine-4-carboxylate]
29 nM	CN(CCC1CCN(C(=O)OCc2cc(Cl)cc(Cl)c2)CC1)C(=O)c1c[nH]c(=O)s1 [Example 15, 3,5-Dichlorobenzyl 4-(2-(N-methyl-2-oxo-2,3-dihydrothiazole-5-carboxamido)ethyl)piperidine-1-carboxylate]
596 nM	O=C(NCCC1CCN(C(=O)OCc2cc(Cl)cc(Cl)c2)CC1)c1nn[nH]n1 [Example 16, 3,5-Dichlorobenzyl 4-(2-(2H-tetrazole-5-carboxamido)ethyl)piperidine-1-carboxylate]
2 nM	O=C(CCCc1c[nH]nn1)NC1CCN(C(=O)OCc2cc(Cl)cc(Cl)c2)CC1 [Example 17, 3,5-Dichlorobenzyl 4-(4-(1H-1,2,3-triazol-4-yl)butanamido)piperidine-1-carboxylate]
94 nM	CN(C(=O)CCCc1c[nH]nn1)C1CCN(C(=O)OCc2cc(Cl)cc(Cl)c2)CC1 [Example 18, 3,5-Dichlorobenzyl 4-(N-methyl-4-(1H-1,2,3-triazol-4-yl)butanamido)piperidine-1-carboxylate]
106 nM	O=C(NCCC1CCN(C(=O)OCc2cc(Cl)cc(Cl)c2)CC1)c1c[nH]c(=O)o1 [Example 21, 3,5-Dichlorobenzyl 4-(2-(2-oxo-2,3-dihydrooxazole-5-carboxamido)ethyl)piperidine-1-carboxylate]
586 nM	O=C(CCc1cc(O)no1)NCCC1CCN(C(=O)OCc2cc(Cl)cc(Cl)c2)CC1 [Example 22, 3,5-Dichlorobenzyl 4-(2-(3-(3-hydroxyisoxazol-5-yl)propanamido)ethyl)piperidine-1-carboxylate]
396 nM	O=C(CCc1cc(O)no1)NC1CCN(C(=O)OCc2cc(Cl)cc(Cl)c2)CC1 [Example 23, 3,5-Dichlorobenzyl 4-(3-(3-hydroxyisoxazol-5-yl)propanamido)piperidine-1-carboxylate]
624 nM	CN(CCC1CCN(C(=O)OCc2cc(Cl)cc(Cl)c2)CC1)C(=O)c1coc(=O)[nH]1 [Example 24, 3,5-Dichlorobenzyl 4-(2-(N-methyl-2-oxo-2,3-dihydrooxazole-4-carboxamido)ethyl)piperidine-1-carboxylate]
520 nM	CN(CCC1CCN(C(=O)OCc2cc(Cl)cc(Cl)c2)CC1)C(=O)c1cc(O)[nH]n1 [Example 25, 3,5-Dichlorobenzyl 4-(2-(5-hydroxy-N-methyl-1H-pyrazole-3-carboxamido)ethyl)piperidine-1-carboxylate]
156 nM	CN(CCCN1CCN(C(=O)OCc2cc(Cl)cc(Cl)c2)CC1)C(=O)c1c[nH]c(=O)o1 [Example 26, 3,5-Dichlorobenzyl 4-(3-(N-methyl-2-oxo-2,3-dihydrooxazole-5-carboxamido)propyl)piperazine-1-carboxylate]
375 nM	O=C(NCCN1CCN(C(=O)OCc2cc(Cl)cc(Cl)c2)CC1)c1c[nH]c(=O)o1 [Example 27, 3,5-Dichlorobenzyl 4-(2-(2-oxo-2,3-dihydrooxazole-5-carboxamido)ethyl)piperazine-1-carboxylate]
786 nM	CN(CCC1CCN(C(=O)OCc2cc(Cl)cc(Cl)c2)CC1)C(=O)c1noc(=O)[nH]1 [Example 28, 3,5-Dichlorobenzyl 4-(2-(N-methyl-5-oxo-4,5-dihydro-1,2,4-oxadiazole-3-carboxamido)ethyl)piperidine-1-carboxylate]
541 nM	CN(CCC1CCN(C(=O)OCc2cc(Cl)cc(Cl)c2)CC1)C(=O)c1nn[nH]n1 [Example 29, 3,5-Dichlorobenzyl 4-(2-(N-methyl-2H-tetrazole-5-carboxamido)ethyl)piperidine-1-carboxylate]
274 nM	CN(CCC1CCN(C(=O)/C=C/c2cc(Cl)cc(Cl)c2)CC1)C(=O)c1c[nH]c(=O)o1 [Example 30, (E)-N-(2-(1-(3-(3,5-Dichlorophenyl)acryloyl)piperidin-4-yl)ethyl)-N-methyl-2-oxo-2,3-dihydrooxazole-5-carboxamide]
387 nM	O=C(NCCC1CCN(C(=O)/C=C/c2cc(Cl)cc(Cl)c2)CC1)c1c[nH]c(=O)o1 [Example 31, (E)-N-(2-(1-(3-(3,5-Dichlorophenyl)acryloyl)piperidin-4-yl)ethyl)-2-oxo-2,3-dihydrooxazole-5-carboxamide]
